Results published in the supplement of paper PMC10307832.

What was measured:
Test in all cases: relative viability (nuclei count vs DMSO), 5 days (fraction); higher = more cells survive
Crenolanib = compound: CC1(COc2ccc3c(c2)ncn3-c2ccc3cccc(N4CCC(N)CC4)c3n2)COC1 [Crenolanib]
Outline: (§1)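 Viability is treated-well nuclei as a fraction of vehicle-well nuclei, reported as the median across plates. Before counting, lung cancer cell lines were kept overnight at 37 °C in 1536-well plates, pinned with five √10-spaced library-drug doses on vehicle-anchored plates, and left 5 days without medium change, then fixed, permeabilised and Hoechst-stained in one step, imaged at 4× and counted by MetaXpress. A plate passed only if control CV was below 25% and at least one doubling occurred.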

Tivantinib = compound: O=C1NC(=O)[C@@H](c2cn3c4c(cccc24)CCC3)[C@@H]1c1c[nH]c2ccccc12 [Tivantinib]
Outline: as §1

Crenolanib + Trametinib = compound: CC1(COc2ccc3c(c2)ncn3-c2ccc3cccc(N4CCC(N)CC4)c3n2)COC1 [Crenolanib] + CC(=O)Nc1cccc(-n2c(=O)n(C3CC3)c(=O)c3c(Nc4ccc(I)cc4F)n(C)c(=O)c(C)c32)c1 [Trametinib] (partner 0.02 µM)
Outline: (§2)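 Five library-drug doses in √10 steps were combined with a fixed anchor-drug dose, or a single drug was given alone, by pin tool to lung cancer cell lines in 1536-well plates the day after seeding. Nuclei were stained and counted after 5 days. Relative viability is the nuclei count in treated wells over that in vehicle wells, taken as the median of duplicate plates.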

Tivantinib + Navitoclax = compound: O=C1NC(=O)[C@@H](c2cn3c4c(cccc24)CCC3)[C@@H]1c1c[nH]c2ccccc12 [Tivantinib] + CC1(C)CCC(c2ccc(Cl)cc2)=C(CN2CCN(c3ccc(C(=O)NS(=O)(=O)c4ccc(N[C@H](CCN5CCOCC5)CSc5ccccc5)c(S(=O)(=O)C(F)(F)F)c4)cc3)CC2)C1 [Navitoclax] (partner 0.5 µM)
Outline: as §2

Cell Line	relative viability (Crenolanib; 0.01 µM)	relative viability (Crenolanib; 0.03162 µM)	relative viability (Crenolanib; 0.1 µM)	relative viability (Crenolanib; 0.3162 µM)	relative viability (Crenolanib; 1 µM)	relative viability (Tivantinib; 0.01 µM)	relative viability (Tivantinib; 0.03162 µM)	relative viability (Tivantinib; 0.1 µM)	relative viability (Tivantinib; 0.3162 µM)	relative viability (Crenolanib + Trametinib; first compound 0.01 µM)	relative viability (Crenolanib + Trametinib; first compound 0.03162 µM)	relative viability (Crenolanib + Trametinib; first compound 0.1 µM)	relative viability (Crenolanib + Trametinib; first compound 0.3162 µM)	relative viability (Crenolanib + Trametinib; first compound 1 µM)	relative viability (Tivantinib + Navitoclax; first compound 0.01 µM)	relative viability (Tivantinib + Navitoclax; first compound 0.03162 µM)	relative viability (Tivantinib + Navitoclax; first compound 0.1 µM)	relative viability (Tivantinib + Navitoclax; first compound 0.3162 µM)
NCI-H1993	0.985	0.889	0.919	1.06	0.925	1	0.897	0.927	0.721	0.509	0.512	0.56	0.505	0.501	1.04	0.929	1.06	0.681
NCI-H1944	1.06	0.934	0.964	0.985	0.773	0.922	0.875	0.882	0.717	0.426	0.414	0.375	0.454	0.406	0.975	0.997	0.992	0.778
LXF-289	0.964	0.996	0.97	1.01	0.976	1.03	1.03	0.977	1.01	0.665	0.638	0.689	0.7	0.718	0.987	0.949	0.93	0.933
NCI-H2405	0.999	0.885	0.81	1	0.871	1.07	1.01	0.983	1.03	0.698	–	0.483	0.621	0.57	1.17	0.766	0.973	0.305
NCI-H2023	1.1	1.03	0.952	1.17	0.785	1.02	0.859	0.856	0.824	0.549	0.556	0.53	0.594	0.494	1.01	1	0.937	1
HCC-366	1.03	1.03	0.958	1.05	0.998	1.02	1.03	0.994	0.955	0.367	0.374	0.3	0.422	0.345	0.951	1.14	1.03	1.07
HCC-78	1.01	0.808	0.84	1.02	0.804	0.979	0.922	0.917	0.655	0.826	0.862	0.682	0.756	0.657	0.853	0.683	0.8	0.3
COR-L23	1.04	1.02	0.952	1.04	0.915	1.06	0.933	0.942	1.11	0.58	0.53	0.418	0.606	0.552	1.18	1.09	0.998	1.19
HCC-827	1.08	1.02	1.03	1.04	0.958	1.06	1.07	1.04	0.765	0.595	0.529	0.505	0.473	0.6	1.04	1.05	0.926	1.02
NCI-H1355	1.07	0.994	0.955	1.03	0.856	1.01	0.921	0.973	1.01	0.488	0.381	0.405	0.547	0.37	0.879	0.966	0.949	0.808
NCI-H838	1.03	0.975	0.946	0.964	0.749	0.952	0.962	0.798	0.932	0.564	0.501	0.489	0.53	0.439	1.06	1.13	1.06	1.2
NCI-H2126	1.03	1.05	0.937	0.987	0.928	0.959	0.945	0.989	0.869	0.596	0.578	0.564	0.608	0.62	0.822	0.821	0.846	0.713
BEN	0.989	0.877	0.962	0.988	0.965	1	0.854	0.873	0.786	1.14	1.06	1.09	0.998	1.15	0.0556	0.0502	0.07	0.0718
LCLC-97TM1	1.12	0.903	0.93	1.05	0.921	1.02	0.813	0.961	0.871	0.215	0.176	0.186	0.188	0.199	0.423	0.28	0.358	0.398
EKVX	1.06	0.871	0.916	1.05	1	0.953	0.957	0.936	0.371	0.365	0.405	0.348	0.332	0.413	0.996	0.953	0.929	0.433
NCI-H1651	0.952	0.928	0.958	0.989	0.932	1.02	0.938	0.874	0.971	0.864	0.835	0.783	0.825	0.847	1.02	0.928	1.03	0.938
NCI-H2087	0.938	1.04	0.88	1.05	0.967	1.11	0.936	0.95	1.06	0.234	0.227	0.207	0.207	0.193	1.14	0.981	0.972	1.03
